Assays:
[1] = target: CB-1 receptor (Human Cannabinoid receptor 1) (Homo sapiens (Human), UniProt P21554); experiment: cAMP HTRF assay, CB-1 inverse agonism in stably transfected HEK-293 cells; type: cell-based; details: 250 nM Forskolin, mean where tested more than once, read-out: CB1 EC50
From the text: (§1) CB1 and CB2 receptors are Gi-coupled GPCR. Activation of CB1 and CB2 receptors results in a decrease in cAMP production. An inverse agonist of the CB1 or CB2 receptor results in the opposite effect, an increase of cAMP production. The principle of this assay is based on HTRF® technology (Homogeneous Time-Resolved Fluorescence). The method is a competitive immunoassay between native cAMP produced by cells and the cAMP labeled with the fluorophore d2. The tracer binding is quantified by a Mab anti-cAMP labeled with Eu3+TBP-NHS Cryptate (supplied as part of the assay kit). The specific signal (i.e. energy transfer) is inversely proportional to the concentration of cAMP in the standard or sample.
(§2) Human CB (Cannabinoid receptor 1) was stably transfected in HEK-293 cells (DiscoveRx, cat: 93-0200C1). Human CB2R (Cannabinoid receptor 2) was stably transfected in HEK-293 cells (DiscoveRx, cat: 93-0201C1). Cell cultures were maintained in media: DMEM (Invitrogen Cat#12430-054) supplemented with 10% HI FBS (Invitrogen Cat#16140-071), 1% L-glutamine (Invitrogen Cat#25030-081), 0.2 mg/mL Hygromycin B (Invitrogen Cat#10687-010), 600 μg/mL G418 (Invitrogen Cat#10131-035), and 1× Penn/Strep (Invitrogen 15140-122). After cell expansion, aliquots were cryo-stored in media containing 5% DMSO (Pierce Cat#20684).
(§3) One day prior to experiments media was warmed to 37° C. and the cryo-stored cells were thawed in a 37° C. water bath. The cells were then added to media (10× volume) and the mixture was centrifuged at 1000 RPM for 5 min. The supernate was removed and the cells were re-suspended in media. A sample of the cell suspension was evaluated on a Cedex XS automated cell counter (Innovatis Systems) to determine viable cells/mL. Additional media was added to the cells to achieve a final cell density of 4E5 cells/mL. The cells were then plated into 384 well PDL white solid bottom plates (Greiner, Cat#781945) at 20 μL per well using a Multidrop (Thermo Scientific). Cells were removed from Row P (location of cAMP standards). Two columns of cells were plated into a clear bottom 384 well PDL coated plate (Greiner, Cat#781944) to view confluence the day of the assay. The cell plates were lidded and stored for 15 minutes in a hood, then transferred to an incubator (37° C., 5% CO2, 95% humidity) overnight.
(§4) Test compounds were solubilized in DMSO at 10 mM or for pegylated compounds 4 or 1 mM. DMSO was added to all wells of 384 well V bottom polystyrene plate (Greiner, Cat#781280) except to columns 1 and 13, rows O and P and wells M13-M23 and N13-N23. Test compounds (60 μL, 10 mM or 4 mM or 1 mM) were added to Column 1 and 13 (A1 through N1 and A13 through L13). Test compounds were serially diluted ⅓ by transferring and mixing 20 μL sample with 40 μL DMSO.
(§5) DMSO (40 μL) was added to wells of 384 well V bottom polystyrene plate: O2 through O11, M14 through M23, N14 through N23, and O14 through O23. AM630 (also known as [6-iodo-2-methyl-1-[2-(4-morpholinyl)ethyl]-1H-indol-3-yl](4-methoxyphenyl)-methanone, Cayman Chemical, Cat#10006974) (60 μL, 10 mM) was added to 01; and 1-(2,4-dichlorophenyl)-7-[(4-fluorophenyl)methylene]-4,5,6,7-tetrahydro-N-1-piperidinyl-1H-indazole-3-carboxamide (60 μL, 10 mM) was added to N13. The control was serially diluted ⅓ by transferring and mixing 20 μL sample with 40 μL DMSO. This process resulted 11 doses per control, 10 mM to 0.17 μM.
(§6) Cells plated the day prior to the assay in clear bottom plates were viewed on an inverse microscope to ensure confluency in the range of 60-75%. […]

[2] = target: CB-2 receptor (Human CB2R, Cannabinoid receptor 2) (Homo sapiens (Human), UniProt P34972); experiment: cAMP HTRF assay, CB-2 in stably transfected HEK-293 cells; type: cell-based; details: 250 nM Forskolin, mean where tested more than once, read-out: CB2 EC50
From the text: as §1, §2, §3, §4, §5, §6

Chain of CB-1 receptor (Human Cannabinoid receptor 1) (P21554 whole entry): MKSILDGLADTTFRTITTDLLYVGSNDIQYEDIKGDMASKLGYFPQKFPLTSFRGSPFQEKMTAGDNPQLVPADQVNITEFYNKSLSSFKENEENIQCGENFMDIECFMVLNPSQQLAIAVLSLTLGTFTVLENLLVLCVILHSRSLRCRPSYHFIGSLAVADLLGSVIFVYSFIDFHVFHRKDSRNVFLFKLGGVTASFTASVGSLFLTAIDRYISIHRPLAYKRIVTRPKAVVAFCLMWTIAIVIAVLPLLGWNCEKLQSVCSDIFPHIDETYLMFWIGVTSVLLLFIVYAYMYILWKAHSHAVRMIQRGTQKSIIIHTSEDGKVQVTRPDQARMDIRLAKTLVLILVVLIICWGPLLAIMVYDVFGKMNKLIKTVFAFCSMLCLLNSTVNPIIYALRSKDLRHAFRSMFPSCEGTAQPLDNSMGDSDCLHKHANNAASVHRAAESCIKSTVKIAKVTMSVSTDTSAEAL
Chain of CB-2 receptor (Human CB2R, Cannabinoid receptor 2) (P34972 whole entry): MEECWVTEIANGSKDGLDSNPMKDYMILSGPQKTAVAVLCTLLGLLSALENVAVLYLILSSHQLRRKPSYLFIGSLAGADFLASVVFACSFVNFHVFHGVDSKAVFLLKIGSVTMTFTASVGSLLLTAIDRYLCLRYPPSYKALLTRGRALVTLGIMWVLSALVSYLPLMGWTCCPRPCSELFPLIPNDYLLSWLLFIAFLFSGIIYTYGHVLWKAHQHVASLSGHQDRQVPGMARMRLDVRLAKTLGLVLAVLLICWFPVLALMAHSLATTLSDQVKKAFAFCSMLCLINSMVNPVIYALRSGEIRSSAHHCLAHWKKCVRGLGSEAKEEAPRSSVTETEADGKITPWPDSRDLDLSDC

Row | Structure (SMILES) | EC50 [1] [nM] | EC50 [2] [µM]
1 | O=S(=O)(N1CCC(Nc2cc(OCCOCCOCCOCCOCCOCCOc3ccc(CO)cc3)nc3ccc(C(c4ccc(Cl)cc4)c4ccc(Cl)cc4)cc23)CC1)C(F)(F)F [Cpd 11] | 61 | 3.11
2 | NNC(=O)CCOCCOCCOCCOCCOCCOCCOCCOCCOCCOCCOCCOCCNC(=O)OCCOCCOCCOc1cc(NC2CCN(S(=O)(=O)C(F)(F)F)CC2)c2cc(C(c3ccc(Cl)cc3)c3ccc(Cl)cc3)ccc2n1 [Cpd 12] | 94 | 5.4
3 | COCCOCCOc1ccc(Nc2cc(=O)[nH]c3ccc(C(c4ccc(Cl)cc4)c4ccc(Cl)cc4)cc23)cc1 [Cpd 20, 6-[bis(4-chlorophenyl)methyl]-4-([4-[2-(2-methoxyethoxy)ethoxy]phenyl]amino)quinolin-2-ol] | 47 | 3.3
4 | O=C(O)CCOCCOCCOCCOCCOCCOCCOCCOCCOCCOCCOCCOCCOc1cc(C(c2ccc(Cl)cc2)c2ccc(Cl)cc2)cc2c(NC3CCN(S(=O)(=O)C(F)(F)F)CC3)ccnc12 [Cpd 17] | 77 | 0.74
5 | COCCOCCOCCOCCn1c(=O)cc(NC2CCN(S(=O)(=O)C(F)(F)F)CC2)c2cc(C(c3ccc(Cl)cc3)c3ccc(Cl)cc3)ccc21 [Cpd 21] | 390 | > 10
6 | O=S(=O)(N1CCC(Nc2cc(OCCOCCOCCOCCOCCOCCO)nc3ccc(C(c4ccc(Cl)cc4)c4ccc(Cl)cc4)cc23)CC1)C(F)(F)F [Cpd 9] | 150 | > 10
7 | COCCOCCOCCOCCOCCOCCOCCOCCOCCOCCOCCOCCNC(=O)CCCCCOc1cc(NC2CCN(S(=O)(=O)C(F)(F)F)CC2)c2cc(C(c3ccc(Cl)cc3)c3ccc(Cl)cc3)ccc2n1 [Cpd 6] | 19 | 3
8 | O=S(=O)(N1CCC(Nc2cc(OCCOCCOCCO)nc3ccc(C(c4ccc(Cl)cc4)c4ccc(Cl)cc4)cc23)CC1)C(F)(F)F [Cpd 8] | 52 | > 10
9 | COCCOCCOCCOCCOCCOCCOCCOCCOCCOCCOCCOCCNC(=O)OCc1ccc(OCCOCCOCCOCCOCCOCCOc2cc(NC3CCN(S(=O)(=O)C(F)(F)F)CC3)c3cc(C(c4ccc(Cl)cc4)c4ccc(Cl)cc4)ccc3n2)cc1 [Cpd 13] | 240 | 4.06

— patent US9815790B2, “Chemically modified quinoline and quinolone derivatives useful as CB-1 inverse agonists” (Janssen Pharmaceutica NV, priority 2015, dated 2017)
